Assay results: PubChem BioAssay (NCI)
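Test compounds were applied to cells in 96-well plates for 48 hours at 5 doses. TGI is the concentration that stops growth completely.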

Assays:
Assay in all cases: growth of human tumour cells (NCI), 48 h
LXFL 529 NSCLC = test system: LXFL 529 NSCLC
HOP-18 NSCLC = test system: HOP-18 NSCLC
HCC-2998 colon = test system: HCC-2998 colon
MALME-3M melanoma = test system: MALME-3M melanoma
SK-MEL-5 melanoma = test system: SK-MEL-5 melanoma
COLO 205 colon = test system: COLO 205 colon
SK-MEL-2 melanoma = test system: SK-MEL-2 melanoma
KM12 colon = test system: KM12 colon
SNB-75 CNS = test system: SNB-75 CNS
UACC-62 melanoma = test system: UACC-62 melanoma
KM20L2 colon = test system: KM20L2 colon
DMS 114 small cell lung = test system: DMS 114 small cell lung
U251 CNS = test system: U251 CNS
HT29 colon = test system: HT29 colon
SF-268 CNS = test system: SF-268 CNS
SK-OV-3 ovarian = test system: SK-OV-3 ovarian
M14 melanoma = test system: M14 melanoma
NCI-H23 lung = test system: NCI-H23 lung
A549 NSCLC = test system: A549 NSCLC
DLD-1 colon = test system: DLD-1 colon
HL-60(TB) leukemia = test system: HL-60(TB) leukemia
HOP-62 NSCLC = test system: HOP-62 NSCLC
CAKI-1 renal = test system: CAKI-1 renal
OVCAR-8 ovarian = test system: OVCAR-8 ovarian
ACHN renal = test system: ACHN renal
CCRF-CEM leukemia = test system: CCRF-CEM leukemia
TK-10 renal = test system: TK-10 renal
MOLT-4 leukemia = test system: MOLT-4 leukemia
A498 renal = test system: A498 renal
LOX IMVI melanoma = test system: LOX IMVI melanoma
SW-620 colon = test system: SW-620 colon
OVCAR-3 ovarian = test system: OVCAR-3 ovarian
NCI-H522 lung = test system: NCI-H522 lung
OVCAR-5 ovarian = test system: OVCAR-5 ovarian
EKVX NSCLC = test system: EKVX NSCLC
OVCAR-4 ovarian = test system: OVCAR-4 ovarian
HCT-116 colon = test system: HCT-116 colon
HCT-15 colon = test system: HCT-15 colon
NCI-H226 lung = test system: NCI-H226 lung
K-562 leukemia = test system: K-562 leukemia
786-0 renal = test system: 786-0 renal
M19-MEL melanoma = test system: M19-MEL melanoma
SF-295 CNS = test system: SF-295 CNS
DMS 273 small cell lung = test system: DMS 273 small cell lung
UO-31 renal = test system: UO-31 renal
SN12C renal = test system: SN12C renal
SR leukemia = test system: SR leukemia
RXF 393 renal = test system: RXF 393 renal
IGROV1 ovarian = test system: IGROV1 ovarian
SNB-19 CNS = test system: SNB-19 CNS
UACC-257 melanoma = test system: UACC-257 melanoma
SK-MEL-28 melanoma = test system: SK-MEL-28 melanoma
XF 498 CNS = test system: XF 498 CNS
RPMI-8226 leukemia = test system: RPMI-8226 leukemia
SNB-78 CNS = test system: SNB-78 CNS
NCI-H460 lung = test system: NCI-H460 lung
HOP-92 NSCLC = test system: HOP-92 NSCLC
SF-539 CNS = test system: SF-539 CNS

O=S(=O)(O)C(O)/C=C/c1ccccc1 (stereo not drawn)
TGI (LXFL 529 NSCLC): > 100 µM
TGI (HOP-18 NSCLC): > 100 µM
TGI (HCC-2998 colon): > 100 µM
TGI (MALME-3M melanoma): > 100 µM
TGI (SK-MEL-5 melanoma): > 100 µM
TGI (COLO 205 colon): > 100 µM
TGI (SK-MEL-2 melanoma): > 100 µM
TGI (KM12 colon): > 100 µM
TGI (SNB-75 CNS): > 100 µM
TGI (UACC-62 melanoma): > 100 µM
TGI (KM20L2 colon): > 100 µM
TGI (DMS 114 small cell lung): > 100 µM
TGI (U251 CNS): > 100 µM
TGI (HT29 colon): > 100 µM
TGI (SF-268 CNS): > 100 µM
TGI (SK-OV-3 ovarian): > 100 µM
TGI (M14 melanoma): > 100 µM
TGI (NCI-H23 lung): > 100 µM
TGI (A549 NSCLC): > 100 µM
TGI (DLD-1 colon): > 100 µM
TGI (HL-60(TB) leukemia): > 100 µM
TGI (HOP-62 NSCLC): > 100 µM
TGI (CAKI-1 renal): > 100 µM
TGI (OVCAR-8 ovarian): > 100 µM
TGI (ACHN renal): > 100 µM
TGI (CCRF-CEM leukemia): > 100 µM
TGI (TK-10 renal): > 100 µM
TGI (MOLT-4 leukemia): > 100 µM
TGI (A498 renal): > 100 µM
TGI (LOX IMVI melanoma): > 100 µM
TGI (SW-620 colon): > 100 µM
TGI (OVCAR-3 ovarian): > 100 µM
TGI (NCI-H522 lung): > 100 µM
TGI (OVCAR-5 ovarian): > 100 µM
TGI (EKVX NSCLC): > 100 µM
TGI (OVCAR-4 ovarian): > 100 µM
TGI (HCT-116 colon): > 100 µM
TGI (HCT-15 colon): > 100 µM
TGI (NCI-H226 lung): > 100 µM
TGI (K-562 leukemia): > 100 µM
TGI (786-0 renal): > 100 µM
TGI (M19-MEL melanoma): > 100 µM
TGI (SF-295 CNS): > 100 µM
TGI (DMS 273 small cell lung): > 100 µM
TGI (UO-31 renal): > 100 µM
TGI (SN12C renal): > 100 µM
TGI (SR leukemia): > 100 µM
TGI (RXF 393 renal): > 100 µM
TGI (IGROV1 ovarian): > 100 µM
TGI (SNB-19 CNS): > 100 µM
TGI (UACC-257 melanoma): > 100 µM
TGI (SK-MEL-28 melanoma): > 100 µM

O=C(N/N=C/c1cccc(O)c1O)N/N=C/c1cccc(O)c1O
TGI (LXFL 529 NSCLC): > 100 µM
TGI (HOP-18 NSCLC): 67.1 µM
TGI (MALME-3M melanoma): 74.4 µM
TGI (COLO 205 colon): > 100 µM
TGI (SK-MEL-2 melanoma): > 100 µM
TGI (KM12 colon): > 100 µM
TGI (SNB-75 CNS): 50.4 µM
TGI (UACC-62 melanoma): > 100 µM
TGI (KM20L2 colon): 95.2 µM
TGI (XF 498 CNS): > 100 µM
TGI (DMS 114 small cell lung): > 100 µM
TGI (U251 CNS): > 100 µM
TGI (HT29 colon): > 100 µM
TGI (SF-268 CNS): > 100 µM
TGI (SK-OV-3 ovarian): > 100 µM
TGI (M14 melanoma): 34 µM
TGI (NCI-H23 lung): > 100 µM
TGI (A549 NSCLC): > 100 µM
TGI (OVCAR-8 ovarian): > 100 µM
TGI (ACHN renal): > 100 µM
TGI (CCRF-CEM leukemia): 38.5 µM
TGI (TK-10 renal): > 100 µM
TGI (MOLT-4 leukemia): 46.8 µM
TGI (RPMI-8226 leukemia): 76.8 µM
TGI (A498 renal): > 100 µM
TGI (LOX IMVI melanoma): > 100 µM
TGI (SW-620 colon): > 100 µM
TGI (OVCAR-3 ovarian): 8.8 µM
TGI (SNB-78 CNS): > 100 µM
TGI (OVCAR-5 ovarian): 59 µM
TGI (EKVX NSCLC): > 100 µM
TGI (OVCAR-4 ovarian): > 100 µM
TGI (HCT-116 colon): 39.8 µM
TGI (HCT-15 colon): > 100 µM
TGI (NCI-H226 lung): 59.5 µM
TGI (K-562 leukemia): > 100 µM
TGI (786-0 renal): > 100 µM
TGI (M19-MEL melanoma): > 100 µM
TGI (SF-295 CNS): 46.2 µM
TGI (DMS 273 small cell lung): 65.2 µM
TGI (UO-31 renal): 36.8 µM
TGI (SN12C renal): > 100 µM
TGI (NCI-H460 lung): > 100 µM
TGI (RXF 393 renal): 86.4 µM
TGI (HOP-92 NSCLC): 77.9 µM
TGI (IGROV1 ovarian): > 100 µM
TGI (SNB-19 CNS): > 100 µM
TGI (SF-539 CNS): 36.2 µM
TGI (UACC-257 melanoma): 62.9 µM
TGI (SK-MEL-28 melanoma): > 100 µM

NC1(CCCCCCCCCCC(=O)O)CNCCNCCNCCNC1
TGI (HCC-2998 colon): 46 µM
TGI (MALME-3M melanoma): > 100 µM
TGI (SK-MEL-5 melanoma): > 100 µM
TGI (COLO 205 colon): > 100 µM
TGI (SK-MEL-2 melanoma): > 100 µM
TGI (KM12 colon): > 100 µM
TGI (UACC-62 melanoma): > 100 µM
TGI (KM20L2 colon): > 100 µM
TGI (DMS 114 small cell lung): > 100 µM
TGI (HT29 colon): > 100 µM
TGI (SF-268 CNS): > 100 µM
TGI (SK-OV-3 ovarian): > 100 µM
TGI (M14 melanoma): > 100 µM
TGI (NCI-H23 lung): > 100 µM
TGI (A549 NSCLC): > 100 µM
TGI (DLD-1 colon): > 100 µM
TGI (HL-60(TB) leukemia): 47.5 µM
TGI (HOP-62 NSCLC): 91.6 µM
TGI (CAKI-1 renal): > 100 µM
TGI (OVCAR-8 ovarian): > 100 µM
TGI (ACHN renal): > 100 µM
TGI (CCRF-CEM leukemia): > 100 µM
TGI (TK-10 renal): > 100 µM
TGI (MOLT-4 leukemia): > 100 µM
TGI (RPMI-8226 leukemia): > 100 µM
TGI (A498 renal): 46.7 µM
TGI (SW-620 colon): > 100 µM
TGI (OVCAR-3 ovarian): > 100 µM
TGI (NCI-H522 lung): > 100 µM
TGI (OVCAR-5 ovarian): 45.6 µM
TGI (EKVX NSCLC): > 100 µM
TGI (OVCAR-4 ovarian): > 100 µM
TGI (HCT-116 colon): 81.2 µM
TGI (K-562 leukemia): > 100 µM
TGI (786-0 renal): > 100 µM
TGI (M19-MEL melanoma): > 100 µM
TGI (SF-295 CNS): > 100 µM
TGI (UO-31 renal): > 100 µM
TGI (SN12C renal): > 100 µM
TGI (SR leukemia): 67.2 µM
TGI (NCI-H460 lung): 86.4 µM
TGI (RXF 393 renal): > 100 µM
TGI (IGROV1 ovarian): > 100 µM
TGI (SNB-19 CNS): 77.6 µM
TGI (SF-539 CNS): > 100 µM
TGI (UACC-257 melanoma): > 100 µM
TGI (SK-MEL-28 melanoma): > 100 µM

O=C(O)c1cc(S(=O)(=O)N=NC=C2c3ccccc3N(O)c3ccccc32)ccc1O
TGI (LXFL 529 NSCLC): 28.6 µM
TGI (HOP-18 NSCLC): 85.4 µM
TGI (HCC-2998 colon): 37.9 µM
TGI (MALME-3M melanoma): 50.3 µM
TGI (SK-MEL-5 melanoma): 32.3 µM
TGI (COLO 205 colon): 37.6 µM
TGI (SK-MEL-2 melanoma): 64.2 µM
TGI (KM12 colon): > 100 µM
TGI (SNB-75 CNS): 7.77 µM
TGI (UACC-62 melanoma): 22 µM
TGI (KM20L2 colon): 63.6 µM
TGI (DMS 114 small cell lung): 50.8 µM
TGI (U251 CNS): > 100 µM
TGI (HT29 colon): > 100 µM
TGI (SF-268 CNS): 34.4 µM
TGI (SK-OV-3 ovarian): 92.2 µM
TGI (M14 melanoma): 79.2 µM
TGI (NCI-H23 lung): 53.3 µM
TGI (A549 NSCLC): > 100 µM
TGI (DLD-1 colon): 64.6 µM
TGI (HL-60(TB) leukemia): 23.7 µM
TGI (HOP-62 NSCLC): 37.5 µM
TGI (CAKI-1 renal): > 100 µM
TGI (OVCAR-8 ovarian): > 100 µM
TGI (ACHN renal): 59.6 µM
TGI (CCRF-CEM leukemia): 86 µM
TGI (TK-10 renal): 50 µM
TGI (MOLT-4 leukemia): 45.1 µM
TGI (RPMI-8226 leukemia): 76.6 µM
TGI (A498 renal): 41 µM
TGI (LOX IMVI melanoma): 26 µM
TGI (SW-620 colon): > 100 µM
TGI (OVCAR-3 ovarian): > 100 µM
TGI (SNB-78 CNS): 96.5 µM
TGI (NCI-H522 lung): 23.8 µM
TGI (OVCAR-5 ovarian): > 100 µM
TGI (EKVX NSCLC): > 100 µM
TGI (OVCAR-4 ovarian): 19.8 µM
TGI (HCT-116 colon): 27.9 µM
TGI (HCT-15 colon): 21.2 µM
TGI (NCI-H226 lung): 72.4 µM
TGI (K-562 leukemia): > 100 µM
TGI (786-0 renal): 27.7 µM
TGI (M19-MEL melanoma): 58.6 µM
TGI (SF-295 CNS): 20.1 µM
TGI (DMS 273 small cell lung): 34.6 µM
TGI (UO-31 renal): 49.5 µM
TGI (SN12C renal): > 100 µM
TGI (NCI-H460 lung): 33.5 µM
TGI (HOP-92 NSCLC): 30.1 µM
TGI (IGROV1 ovarian): 83.1 µM
TGI (SNB-19 CNS): > 100 µM
TGI (UACC-257 melanoma): 88.2 µM
TGI (SK-MEL-28 melanoma): 30.9 µM
